The source of these data is patent US10808283B2, “Methods and kits for the molecular subtyping of tumors” (BioNTech Diagnostics GmbH, priority 2013, dated 2020).

One series concerns luminal A tumor patients. The series is described as follows: Kaplan Meier analysis of distant metastasis free survival, luminal A tumor patients. Particulars: for HR, DMFS: docetaxel vs vinorelbine; for distant metastasis free survival: 5 year time point. The class given is in vivo, human. Here is the method: FIG. 17 depicts a Kaplan Meier analysis of distant metastasis free survival of luminal A tumor patients.
(§1) For the evaluation of breast tumors, 855 out of 1010 breast cancer patients of the FinHER study (Joensuu et al. (2006), N Engl J Med, 354:809-820) could be used. The mean cut-off values (given as 40-ΔCT values) were as follows: HER2: 38; ESR1: 34; PGR: 30,2; Ki67: 31.7; and RACGAP1: 34.2. The cut-off values for HER2 and ESR1 were determined based on evaluation of previous studies (Koutras et al. (2008), Brit. J. of Cane., 99:1775-1785; Pentheroudakis et al. (2009), Breast Cancer Res Treat 2009, 116:131-143) using 268 samples and were applied to the FinHER study (proportional hazards model validation). CALM2 served as reference gene.
(§2) FIGS. 10 to 19 depict Kaplan-Meier survival curves for different tumor subtypes (luminal B, HER2-positive, luminal A, and triple-negative breast cancer [TNBC]) treated with different chemotherapy agents (docetaxel or vinorelbine). Subytpes defined by RT-qPCR according to the present invention are shown in panel A, whereas subtypes defined by IHC are shown in panel B. Dotted lines mark the 5 year time point for outcome calculations.

Series [1] concerns HER2-positive tumor patients. The series is described as follows: Kaplan Meier analysis of overall survival, HER2-positive tumor patients. The series is classed as in vivo, human. Particulars: for HR, overall survival: docetaxel vs vinorelbine; for overall survival: 5 year time point.
Source text: FIG. 14 depicts a Kaplan Meier analysis of the overall survival of HER2-positive tumor patients. […] B: Similar results are shown for tumors subtyped by IHC (86% vs. 89%, HR 1.175; CI 0.518-2.663).
as §1, §2

Series [2] deals with patients with luminal B tumors. Put plainly: Kaplan Meier analysis of overall survival, FinHER patients with luminal B tumors. The class given is in vivo, human. On the set-up: overall survival: concentration or dose not given beside the values. The conditions noted are these: for HR, overall survival: docetaxel vs vinorelbine.
Source text: FIG. 10 depicts a Kaplan Meier analysis of the overall survival of patients with luminal B tumors. […] B: en the tumor subtype is defined by IHC, the benefit of docetaxel for luminal B patients cannot be shown (95% vs. 92%, HR 0.617; CI 0.235-1.623).
FIG. 11 depicts a Kaplan Meier analysis of the overall survival of patients with luminal B tumors, adjusted for tumor histologic type by Cox Regression as specified in the SAP. A: The prediction of the docetaxel benefit by RT-qPCR kit remains significant (97% vs. 88%, HR 0.232; CI 0.087-0.624). B: Subtyping by IHC is not predictive for a docetaxel benefit (96% vs. 92%, HR 0.510; CI 0.184-1.414).
as §1, §2

In the next series the test system is luminal A tumors. The series is described as follows: Kaplan Meier analysis of overall survival, luminal A tumors. The series is classed as in vivo, human. The conditions noted are these: for HR, overall survival: docetaxel vs vinorelbine; for overall survival: 5 year time point.
Source text: FIG. 16 depicts a Kaplan Meier analysis of overall survival of luminal A tumors. […] B: By contrast, when defined by IHC, luminal A patients show a weak, yet non-significant trend towards longer overall survival (97 vs. 93% HR 0.443; CI 0.114-1.716) when treated with docetaxel as compared to vinorelbine.
as §1, §2

The test system of another series is HER2-positive tumors. The series is described as follows: Kaplan Meier analysis of distant metastasis free survival, HER2-positive tumors. The class given is in vivo, human. Particulars: for HR, DMFS: docetaxel vs vinorelbine; for distant metastasis free survival: 5 year time point. Here is the method:
FIG. 15 depicts a Kaplan Meier analysis of distant metastasis free survival of HER2-positive tumors.
as §1, §2

Series [3] has as its system TNBC tumor patients. Put plainly: Kaplan Meier analysis of overall survival, TNBC tumor patients. The conditions noted are these: for HR, overall survival: docetaxel vs vinorelbine; for overall survival: 5 year time point. The series is classed as in vivo, human.
Source text: FIG. 18 depicts a Kaplan Meier analysis of overall survival of TNBC tumor patients. […] B: When defined by IHC, TNBC patients show a weak, yet non-significant trend towards longer overall survival (88% vs. 80%, HR 0.552; CI 0.207-1.472).
as §1, §2

The subject of another series is luminal B tumor patients. Put plainly: Kaplan Meier analysis of distant metastasis free survival (DMFS), luminal B tumor patients. The series is classed as in vivo, human. The conditions noted are these: for distant metastasis free survival: adjusted for number of metastatic lymph nodes, tumor size and histologic type, 5 years; for distant metastasis free survival (DMFS): 5 year time point.
Source text: FIG. 12 depicts a Kaplan Meier analysis of distant metastasis free survival (DMFS) of luminal B tumor patients. A: When defined by RT-qPCR, luminal B patients have a higher probability to remain free of distant metastasis when treated with docetaxel-FEC as compared to vinorelbine-FEC (89% vs. 78% respectively, HR 0.471; CI 0.263-0.843). B: When luminal B tumors are defined by IHC, survival differences are not observed between different treatment regimens (87% vs. 86%, HR 0.938 CI 0.474-1.856).
FIG. 13 depicts a Kaplan Meier analysis of distant metastasis free survival of patients with luminal B tumors, adjusted for number of metastatic lymph nodes, tumor size and histologic type by Cox Regression as specified in the SAP. A: By using the subtyping assay of the present invention the effect remains significant (90 vs. 78%, HR 0.409; CI 0.219-0.764). B: By contrast there is no effect when tumor subtyping occurs by IHC (89% vs. 85%, HR 0.674; CI 0.307-1.481).
as §1, §2

Series [4] deals with TNBC tumor patients. Put plainly: Kaplan Meier analysis of distant metastasis free survival, TNBC tumor patients. The conditions noted are these: for distant metastasis free survival: 5 year time point; for HR, DMFS: docetaxel vs vinorelbine. The series is classed as in vivo, human.
Source text: FIG. 19 depicts a Kaplan Meier analysis of distant metastasis free survival of TNBC tumor patients. […] B: IHC-defined TNBC patients show a weak, yet non-significant trend towards longer distant metastasis free survival (82% vs. 72%, HR 0.615; CI 0.284-1,333) when treated with docetaxel as compared to vinorelbine.
as §1, §2

For series [5] the following is noted: FinHER clinical trial; docetaxel compared with vinorelbine; cited from earlier work.
[6] abbreviates: FIG. 17A, luminal A defined by RT-qPCR.
The mark [7] stands for this setting: FIG. 17B, luminal A IHC-subtyped.
Setting [8] is: FIG. 14A, HER2-positive defined by RT-qPCR.
Setting [9] is: FIG. 14B, HER2-positive subtyped by IHC.
[10] abbreviates: FIG. 10B, luminal B defined by IHC, 5 year time point.
Setting [11] is: FIG. 11A, luminal B by RT-qPCR, adjusted for tumor histologic type by Cox Regression, 5 years.
The mark [12] stands for this setting: FIG. 11B, luminal B by IHC, adjusted for tumor histologic type by Cox Regression, 5 years.
Setting [13] is: FIG. 16A, luminal A defined by RT-qPCR.
Setting [14] is: FIG. 16B, luminal A defined by IHC.
Setting [15] is: FIG. 15A, HER2-positive defined by method of the invention (RT-qPCR).
Setting [16] is: FIG. 15B, HER2-positive defined by IHC.
The mark [17] stands for this setting: FIG. 18A, TNBC defined by RT-qPCR.
The mark [18] stands for this setting: FIG. 10A, luminal B defined by RT-qPCR, 5 year time point, combined with FEC.
Setting [19] is: FIG. 12A, luminal B defined by RT-qPCR.
Setting [20] is: FIG. 12B, luminal B defined by IHC.

Turning to `CC(=O)O[C@@]12CO[C@@H]1C[C@H](O)[C@@]1(C)C(=O)[C@H](O)C3=C(C)[C@@H](OC(=O)[C@H](O)[C@@H](NC(=O)OC(C)(C)C)c4ccccc4)C[C@@](O)([C@@H](OC(=O)c4ccccc4)[C@H]21)C3(C)C` [docetaxel], the “HR, DMFS” value in the series on luminal A tumor patients (FIG. 17A, luminal A by RT-qPCR) is 0.826; in the series on luminal A tumor patients (FIG. 17B, luminal A by IHC) it was 0.553; in the series on HER2-positive tumors (FIG. 15A, HER2-positive by RT-qPCR) it was 1.070; in the series on HER2-positive tumors (FIG. 15B, HER2-positive by IHC), 0.975; with luminal B tumor patients (FIG. 13A, luminal B by RT-qPCR, adjusted for metastatic lymph nodes, tumor size, histologic type, docetaxel vs vinorelbine), 0.409; in the series on luminal B tumor patients (FIG. 13B, luminal B by IHC, adjusted for metastatic lymph nodes, tumor size, histologic type, docetaxel vs vinorelbine), 0.674. Moreover, the “HR, DMFS” value was determined as 1.211 in the series with TNBC tumor patients [4] (FIG. 19A, TNBC by RT-qPCR) and 0.615 with TNBC tumor patients [4] (FIG. 19B, TNBC by IHC). The “distant metastasis free survival” value in the series on luminal A tumor patients (setting [6]) stood at 92%; in the series on luminal A tumor patients (setting [7]), 93%; with HER2-positive tumors (setting [15]) it was 80%; in the series on HER2-positive tumors (setting [16]) it was 78%; in the series with luminal B tumor patients (FIG. 13A, luminal B by RT-qPCR), 90%; in the series on luminal B tumor patients (FIG. 13B, luminal B by IHC), 89%. In addition, the “distant metastasis free survival” value in the series on TNBC tumor patients [4] (FIG. 19A, RT-qPCR-defined TNBC) turned out to be 74%; in the series on TNBC tumor patients [4] (FIG. 19B, IHC-defined TNBC), 82%. The “HR, overall survival” value was 1.320 in series [1] (FIG. 14A, HER2-positive by RT-qPCR); 1.175 in [1] (FIG. 14B, HER2-positive by IHC); 0.617 in series [2] (FIG. 10B, luminal B defined by IHC); 0.232 in series [2] (FIG. 11A, luminal B by RT-qPCR, adjusted for tumor histologic type); 0.510 in series [2] (FIG. 11B, luminal B by IHC, adjusted for tumor histologic type); 2.471 in the series with luminal A tumors (FIG. 16A, luminal A by RT-qPCR). In addition, the “HR, overall survival” value was 0.443 in the series with luminal A tumors (FIG. 16B, luminal A by IHC); 0.949 in the series on TNBC tumor patients [3] (FIG. 18A, TNBC by RT-qPCR); 0.552 in the series on TNBC tumor patients [3] (FIG. 18B, TNBC by IHC). The overall survival was found to be 87% in [1] (setting [8]); 86% in series [1] (setting [9]); 95% in series [2] (setting [10]); 97% in series [2] (setting [11]); 96% in series [2] (setting [12]); 95% with luminal A tumors (setting [13]). Besides, the overall survival in the series with luminal A tumors (setting [14]) was 97%; in the series on TNBC tumor patients [3] (setting [17]), 84%; with TNBC tumor patients [3] (FIG. 18B, TNBC defined by IHC) it was 88%. In addition, in [2] (luminal B tumors classified by RT-qPCR, FIGS. 10 to 19, vs vinorelbine, combined with FEC), the “benefit of docetaxel treatment” value is “significant benefit”. Also, in the series with luminal A tumors (luminal A tumors by RT-qPCR, effect does not reach statistical significance), the “outcome compared to vinorelbine” value is recorded as “even inferior to vinorelbine”. In [5], the adverse effects result is reported as “more commonly associated with adverse effects”.

On to `CCC1=C[C@@H]2CN(C1)Cc1c([nH]c3ccccc13)[C@@](C(=O)OC)(c1cc3c(cc1OC)N(C)[C@H]1[C@@](O)(C(=O)OC)[C@H](OC(C)=O)[C@]4(CC)C=CCN5CC[C@]31[C@@H]54)C2` [vinorelbine], for which the “distant metastasis free survival” value amounted to 90% with luminal A tumor patients (setting [6]); 88% in the series with luminal A tumor patients (setting [7]); 81% in the series on HER2-positive tumors (setting [15]); 77% in the series with HER2-positive tumors (setting [16]); 78% in the series on luminal B tumor patients (FIG. 13A, luminal B by RT-qPCR); 85% in the series with luminal B tumor patients (FIG. 13B, luminal B by IHC). The “distant metastasis free survival” value with TNBC tumor patients [4] (FIG. 19A, RT-qPCR-defined TNBC) worked out at 78%; in the series on TNBC tumor patients [4] (FIG. 19B, IHC-defined TNBC), 72%. Moreover, the overall survival in series [1] (setting [8]) came out at 91%; in [1] (setting [9]), 89%; in series [2] (setting [11]) it was 88%; in [2] (setting [12]), 92%; in the series on luminal A tumors (setting [13]) it was 98%; with luminal A tumors (setting [14]) it was 93%. Also, the overall survival with TNBC tumor patients [3] (setting [17]) stood at 83%; in the series with TNBC tumor patients [3] (FIG. 18B, TNBC defined by IHC) it was 80%.

As to docetaxel, in series [2] (setting [18]), the overall survival amounted to 97%. In addition, the “Hazard Ratio [HR], overall survival” value in [2] (FIG. 10A, luminal B defined by RT-qPCR, docetaxel-FEC vs vinorelbine-FEC) was 0.241. Moreover, the figures for the “distant metastasis free survival (DMFS)” value with luminal B tumor patients (setting [19]) and in the series on luminal B tumor patients (setting [20]) were 89% and 87%, respectively. Also, the “HR, DMFS” value in the series with luminal B tumor patients (FIG. 12A, luminal B defined by RT-qPCR, docetaxel-FEC vs vinorelbine-FEC) worked out at 0.471; in the series with luminal B tumor patients (FIG. 12B, luminal B defined by IHC, docetaxel-FEC vs vinorelbine-FEC) it was 0.938.

For the molecule vinorelbine, the overall survival was 89% in series [2] (setting [18]) and 92% in series [2] (setting [10]). Further, the “distant metastasis free survival (DMFS)” value in the series on luminal B tumor patients (setting [19]) is recorded as 78%; in the series with luminal B tumor patients (setting [20]), 86%.
